SMILES strings stand for the structures. The source made the active and inactive calls. The rule behind the calls is not given here. Where only a bound is given, the exact number is not on record here.

In the experiment the target is Ribonuclease H1 (Homo sapiens) (UniProt O60930). As to the kind of experiment: inhibition of human ribonuclease H1 activity – biochemical, FRET RNA/DNA duplex cleavage, dose response (AID 366).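 Note: potency is for inhibitors that lower RNA cleavage and so lower fluorescence.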 The conditions noted are these: human RNase H1, FRET RNA/DNA duplex cleavage, fluorescence.
Ribonuclease H1 (Homo sapiens), sequence (O60930 whole entry, looked up): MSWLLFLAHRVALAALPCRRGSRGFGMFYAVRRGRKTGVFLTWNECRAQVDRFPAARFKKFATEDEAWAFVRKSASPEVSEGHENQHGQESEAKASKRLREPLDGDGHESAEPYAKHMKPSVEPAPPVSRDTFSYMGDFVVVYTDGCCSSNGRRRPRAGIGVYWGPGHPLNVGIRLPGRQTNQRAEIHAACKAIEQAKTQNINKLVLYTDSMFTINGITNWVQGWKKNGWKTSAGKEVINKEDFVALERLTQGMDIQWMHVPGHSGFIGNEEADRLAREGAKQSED
As for `Cc1cc(=O)c2c(O)c3c(O)cc(O)c4c5c(O)cc(O)c6c(O)c7c(=O)cc(C)c8c1c2c(c34)c(c65)c78`, the half-inhibitory concentration (IC50) – broadly, the concentration needed to halve the response being measured – is 1100 nM. Take `C=CCn1c(N)c(-c2nc3ccccc3[nH]2)sc1=S`: the IC50 result was “inactive”.

Regarding `CN1CC(O)C2=CC(=O)C(=O)C=C21` (stereo not drawn), the IC50 was 1600 nM.

Consider `CN(C)CS/C(N)=N/C(O)C(Cl)(Cl)Cl` (stereo not drawn), for which the IC50 result is “inactive”.

For `COc1ccc(N2C(=O)/C(=C/c3ccc(I)o3)C(=O)NC2=S)cc1`, the concentration for half-maximal inhibition (IC50) is 1200 nM. With `CCN1C(=O)/C(=C/c2ccoc2)C(=O)NC1=S`, the IC50 is > 100000 nM (inactive). `O=C1NC(=S)N(c2ccccc2F)C(=O)/C1=C/c1ccc(OCc2cccc(C(=O)O)c2)cc1`: the IC50 is 9000 nM. Take `O=c1[nH]c2[nH]c(=S)[nH]c(=S)c2[nH]1`: the IC50 was 9000 nM. Turning to `O=C1NC(=S)N(c2ccc(Cl)cc2)C(=O)/C1=C\C=C\c1ccccc1[N+](=O)[O-]`, the IC50 was 7000 nM. To `O=C1c2cc([N+](=O)[O-])ccc2-c2ccc3c4ccc5c6c(ccc(c7ccc1c2c73)c64)C(=O)c1cc([N+](=O)[O-])ccc1-5` belongs 400 nM; to `C[C@H]1[C@H](O)c2c(c3c(c4c(-c5ccccc5)cc(=O)oc24)OC(C)(C)C=C3)O[C@@H]1C`, 9000 nM; to `Cc1ccc(C(=O)Nc2sc(C)c(C)c2C(N)=O)cc1`, 800 nM. Take `O=c1[nH]c(=S)n(-c2ccccc2F)c(O)c1C=C1C=CC=N1`: the IC50 was 400 nM. Turning to `O=S(=O)(O)c1cc(N=[N+]([O-])c2cc(S(=O)(=O)O)c3ccccc3c2)cc2ccccc12`, the IC50 is 500 nM. On to `Cc1ccc(S(=O)(=O)N=C2C=CC(=O)C=C2)c(C)c1`, for which the IC50 is 3100 nM. Consider `O=C1C=CC(=O)C(c2cc(Cl)ccc2Cl)=C1`, for which the IC50 is 3000 nM. Consider `Ic1ccc2c(c1)N(c1ccccc1)c1cc(N=c3ccc4nc5ccc(I)cc5n(-c5ccccc5)c-4c3)ccc1N2`, for which the half-maximal inhibitory concentration (IC50) was 300 nM.

For the compound `COC([CH2][Hg][n]1cnc2c1c(=O)n(C)c(=O)n2C)CN1C(=O)c2ccccc2S1(=O)=O` (stereo not drawn), the IC50 is 3300 nM. In the case of `CCCc1cc(=O)oc2c3c(c4c(c12)OC(C)(C)C=C4)O[C@@H](C)[C@H](C)[C@@H]3F`, the IC50 was 6800 nM.

As to `O=C(N/N=C/c1ccccc1Cl)c1cc(O)c(O)c(O)c1`, the IC50 entry was “inactive”.

For `O=C(O)/C=C/c1c2ccc(=O)c(O)c-2oc2c(O)c(O)ccc12`, the IC50 is 50 nM.

With `NCC[Se][Se]CCN`, the IC50 was 5300 nM. Turning to `Cc1sc(NC(=O)c2ccc3c(c2)OCO3)c(C(N)=O)c1C`, the IC50 was 3300 nM.

Turning to `Oc1ccc2ccccc2c1C=NCc1c(O)ccc2ccccc12`, the IC50 is 8000 nM. On to `O=C1c2ccccc2C(=O)c2c(NC3CCCCC3)ccc(Nc3ccc(S(=O)(=O)O)cc3)c21`, for which the IC50 is 2200 nM. With `CCOC(=O)Oc1c(OC)cc(C(=O)O[C@@H]2C[C@@H]3CN4CCc5c([nH]c6cc(OC)ccc56)[C@H]4C[C@@H]3[C@H](C(=O)OC)[C@H]2OC)cc1OC`, the IC50 result is “inactive”. For the compound `Nc1c(S(=O)(=O)O)cc(Nc2cccc(S(N)(=O)=O)c2)c2c1C(=O)c1ccccc1C2=O`, the IC50 is 2600 nM. For the compound `COc1ccc(-c2nc3sc(-c4ccc(OC)cc4)nc3s2)cc1`, the IC50 result is “inactive”. Regarding `CC(C)=CCC1=C(O)[C@@](O)(CC=C(C)C)C(=O)C(C(=O)CC(C)C)=C1O`, the IC50 was 2000 nM. As for `Cc1sc(NC(=O)C2CC3CCC2C3)c(C(N)=O)c1C` (stereo not drawn), the IC50 entry is “inactive”. `C[C@]12CC[C@H]3[C@@H](CCC4=CC(=O)CC[C@@]43C)[C@@H]1CC[C@@H]2C(=O)COS(=O)(=O)c1ccc(Br)cc1`: the IC50 is 1100 nM. With `Nc1cc(S(N)(=O)=O)ccc1SSc1ccc(S(N)(=O)=O)cc1N`, the IC50 result is “inactive”. Next, `O=S(=O)(Nc1cccc(C(F)(F)F)c1)c1ccc2ccccc2c1`: “inactive”; `O=C1C=CC2=C3c4cc(O)c(O)cc4CC3(O)COC2=C1O` (stereo not drawn): 200 nM. For `Cc1cc(C)c2c(=O)[nH]c(SCC(=O)c3ccc(O)c(O)c3)nc2n1`, the IC50 was 9000 nM. On to `CC1=NN(c2ccc(S(N)(=O)=O)cc2)C(=O)/C1=C/c1ccc(-c2ccc(Cl)cc2Cl)o1`, for which the 50% inhibitory concentration (IC50) was 750 nM.

As to `COC(=O)c1cc2c3c(ccc2[nH]1)N(C(=O)c1cc2c4c(ccc2[nH]1)N(C(=O)c1cc2c5c(ccc2[nH]1)N(C(N)=O)CC5)CC4)CC3`, the IC50 was 800 nM.

For the compound `O=C(O)c1c(Br)c(Br)c(Br)c(Br)c1C1c2ccc(O)cc2Oc2cc(O)ccc21`, the IC50 was 900 nM. Next, `CCCCCCCCCCCCCCCCCCOCC(O)CO` (stereo not drawn): > 100000 nM (inactive); `C=C1C(=O)O[C@@H]2/C=C(\C)CC/C=C(\C(=O)O)CC/C=C(\C)CC[C@H]12`: 3100 nM; `COc1ccc2c(c1)N(C(=O)CN1C(=O)c3ccccc3C1=O)C(C)(C)c1ssc(=S)c1-2`: “inactive”. Next, `O=C1c2ccccc2C(=O)c2c1cc(O)c(O)c2O`: 600 nM; `O=C1/C(=C/c2ccco2)C(=O)N(c2ccc(Br)cc2)C(=S)N1c1ccccc1`: 4400 nM; `O=C1/C(=C\c2ccc(O)c(O)c2)SC(=S)N1c1cccc(Cl)c1`: 1600 nM. Consider `CCOc1ccc(N2C(=O)/C(=C/c3ccc(I)o3)C(=O)NC2=S)cc1`, for which the IC50 was 2000 nM. Regarding `Cc1cc(I)c2c(c1)C1C=CCC1C(C(=O)O)N2` (stereo not drawn), the IC50 entry was “inactive”.

With `Cc1cccc(NCC(=O)N/N=C\c2c(Br)cc(Br)c(O)c2Br)c1`, the IC50 entry is “inactive”. As for `Cc1cc(-c2ccco2)c(C#N)c(SCC(=O)c2ccc(O)c(O)c2)n1`, the IC50 was 1800 nM. For the compound `O=C(Cc1ccccc1Cl)c1ccc(O)c(O)c1O`, the IC50 entry was “inactive”. With `COc1cc(C=O)ccc1OCCCOc1cccc(Oc2ccccc2)c1`, the IC50 was 6000 nM. For the compound `c1ccc(C(c2cccc3c2ccc2ccccc23)C(c2ccccc2)c2cccc3c2ccc2ccccc23)cc1` (stereo not drawn), the IC50 was 3600 nM. Consider `O=C1NC(=S)N(c2ccccc2F)C(=O)C1=Cc1ccco1`, for which the IC50 was 200 nM. As to `CC(C)c1ccc(O)c(=O)cc1`, the IC50 result was “inactive”. Turning to `O=C1NC(=O)/C(=C/c2ccc(-c3ccc(O)c(C(=O)O)c3)o2)S1`, the IC50 is 200 nM. Turning to `C=Cc1c(C)c2cc3[nH]c(cc4nc(cc5nc(cc1[nH]2)C(C)=C5CCC(=O)O)C(CCC(=O)O)=C4C)c(C)c3C=C`, the IC50 is 200 nM. Next, `NC(=O)c1c(NC(=O)CCc2ccccc2)sc2c1CCCCCC2`: 1800 nM; `O=[N+]([O-])c1c(Cl)cccc1-c1c[nH]cc1Cl`: > 100000 nM (inactive). Consider `CC1C2C=CC1C(c1c3ccc(=O)c(O)c-3oc3c(O)c(O)ccc13)C2C(=O)O` (stereo not drawn), for which the IC50 is 70 nM.

On to `Cc1ccc(C(=O)NC(=S)Nc2ccc(-c3nc4ccccc4s3)cc2)cc1[N+](=O)[O-]`, for which the IC50 is 800 nM.

Turning to `CC(C)=CCC(O)C1=CC(=O)c2c(O)ccc(O)c2C1=O` (stereo not drawn), the half-inhibitory concentration (IC50) is 4200 nM. In the case of `O=[N+]([O-])c1cc(Cc2cc([N+](=O)[O-])c3cccnc3c2O)c(O)c2ncccc12`, the 50% inhibitory concentration (IC50) is 500 nM. Turning to `CC1=c2c(oc3cc(O)c(Nc4c(C)cc(O)cc4O)c(C)c23)=CC(=O)C1=Nc1c(C)cc(O)cc1O`, the IC50 is 300 nM. For `Oc1ccc(/C=N/Nc2nncc(-c3ccccc3)n2)c(O)c1O`, the IC50 was 1100 nM. Next, `Cc1ccc(C=C2C(=O)NC(=S)N(c3ccccc3Cl)C2=O)o1`: “inactive”; `Cc1ccc(C2COc3cc(O)c(O)cc3C2)cc1` (stereo not drawn): 4800 nM; `Cc1ccc(-c2cc(C(=O)Nc3sc(C(=O)OC(C)C)c(C)c3C(N)=O)c3ccccc3n2)s1`: 800 nM. To `O=C(CSc1nc2ccccc2s1)c1sc2sc3ccccc3[n+]2c1[O-]` belongs 300 nM; to `Cc1sc(NC(=O)C2CCCO2)c(C(N)=O)c1C` (stereo not drawn), “inactive”; to `CC1Oc2cc3c(-c4c(O)cc(O)c5c(O)c6c(cc45)OC(C)C(C)C6=O)c(O)cc(O)c3c(O)c2C(=O)C1C` (stereo not drawn), 2700 nM. As to `NC(=O)c1c(N)sc2c1CCCCC2`, the IC50 result is “inactive”. In the case of `Cc1cc(O)c2c(c1O)C(=O)C13C(=C2O)C(=O)C2C(O)C1C1C(O)C3C(=O)C3=C(O)c4c(O)cc(C)c(O)c4C(=O)C321` (stereo not drawn), the IC50 is 4000 nM. Turning to `C[C@@H]1Oc2c3c(c4c(-c5ccccc5)cc(=O)oc4c2C(=O)[C@H]1C)OC(C)(C)C=C3`, the 50% inhibitory concentration (IC50) was 3100 nM.

In the case of `Cc1c(Cl)ccc2c1NC(C(=O)O)C1CC=CC21` (stereo not drawn), the IC50 was 2000 nM. As to `O=C(Nc1sc2c(c1C(=O)Nc1cccc3ccccc13)CCCCC2)c1ccccc1F`, the IC50 is 4800 nM.

With `O=C1NC(=S)N(c2ccc(Cl)cc2)C(=O)/C1=C/c1ccco1`, the IC50 result is “inactive”.

For the compound `Cc1ccc(C)n1-c1ccc(SCC(=O)O)cc1`, the IC50 is 1200 nM. To `Cc1ccc(S(=O)(=O)/N=C2\C=C(Sc3ncn[nH]3)C(=O)c3ccccc32)cc1` belongs 9200 nM.

Regarding `Nc1ccc(N=Nc2ccc(-c3ccc(O)cc3)cc2)c2ccc(S(=O)(=O)O)cc12`, the IC50 was 4800 nM. For `COc1c(OC)c(O)c2c(=O)cc(-c3ccc(O)c(O)c3)oc2c1OC`, the IC50 result is “inactive”. Next, `Oc1cc(O)c2c(c1)OC(c1ccc(O)c(O)c1)C(OC1(c3cc(O)c(O)c(O)c3)Oc3cc(O)cc(O)c3C(O)C1O)C2` (stereo not drawn): 2400 nM; `C=C(CCC(C(=O)O)C1CCC2(C)C3=C(CCC12C)C1(C)CCC(O)C(C)(C)C1CC3)C(C)C` (stereo not drawn): 4800 nM; `O=C(O)c1cc(-c2ccc(/C=C3/Sc4ccccc4C3=O)o2)ccc1O`: 400 nM. On to `CC(C)=CCc1ccc(O)c(=O)cc1C(C)C`, for which the IC50 entry was “inactive”. For the compound `CC(=O)C1=C(O)[C@@]2(O)C(=O)c3c(c(C)c4ccc(C)c(O)c4c3O)C[C@H]2[C@@H](N)C1=O`, the IC50 was 700 nM. For `O=C1O/C(=C(/C(=O)O)c2ccc(O)cc2)C(O)=C1c1cc2c3c(c(O)cc(C4=C(O)/C(=C(\C(=O)O)c5ccc(O)cc5)OC4=O)c3c1)OC2=O`, the IC50 is 600 nM. Regarding `CCC(=O)Nc1sc2c(c1C(=O)Nc1ccc(OC)cc1)CCCCC2`, the IC50 is 9000 nM. For the compound `O=C1c2ccccc2C(=O)N1c1ccc(-c2nc3ccc(N4C(=O)c5ccccc5C4=O)cc3[nH]2)cc1`, the IC50 was 540 nM. Regarding `Nc1ccc(S(=O)(=O)O)c2cccc(O)c12`, the IC50 is 4500 nM.

For the origin of these results see PubChem BioAssay AID366 (MTDP, 2006).
